In ChEMBL document CHEMBL1156375, “Isolation and structure determination of novamethymycin, a new bioactive metabolite of the methymycin biosynthetic pathway in Streptomyces venezuelae” (2001) one finds zone of inhibition data, which are given here for four compounds.

For this assay, the system named is Bacillus subtilis. Briefly: Antibacterial activity against Bacillus subtilis ATCC 6633 at 100 ug/disk after 10 hrs by disk diffusion assay. Type of assay: functional. Conditions: ATCC 6633, 10 h, read-out: DIZ.

For the compound `CC[C@H]1OC(=O)[C@H](C)[C@@H](O[C@@H]2O[C@H](C)C[C@H](N(C)C)[C@H]2O)[C@@H](C)C[C@@H](C)C(=O)/C=C/[C@H]1C`, the zone of inhibition at 100 µg/disc amounted to 16 mm.
For `CC[C@H]1OC(=O)[C@H](C)[C@@H](O[C@@H]2O[C@H](C)C[C@H](N(C)C)[C@H]2O)[C@@H](C)C[C@@H](C)C(=O)/C=C/[C@]1(C)O` [METHYMYCIN], the zone of inhibition at 100 µg/disc was 18 mm.
With `C[C@@H]1C[C@H](N(C)C)[C@@H](O)[C@H](O[C@H]2[C@@H](C)C[C@@H](C)C(=O)/C=C/[C@@H](C)[C@@H]([C@@H](C)O)OC(=O)[C@@H]2C)O1` [NEOMETHYMYCIN] the figure was 20 mm.
Take `C[C@@H]1C[C@H](N(C)C)[C@@H](O)[C@H](O[C@H]2[C@@H](C)C[C@@H](C)C(=O)/C=C/[C@](C)(O)[C@@H]([C@@H](C)O)OC(=O)[C@@H]2C)O1` [NOVAMETHYMYCIN]: the zone of inhibition at 100 µg/disc was found to be 18 mm.
